Data from US20250144170A1, “METHOD FOR SUSTAINED DRUG DELIVERY FOR WOUND HEALING USING SILK HYDROGEL AND PRODUCT THEREOF” (AASYA HEALTH CARE PRIVATE LIMITED, priority 2022, published 2025).

Legend:
Format in all cases: cell-based
[1] = MTT assay cell viability
Protocol: All the three cell lines (10,000 cells/200 μl medium) were cultured in their respective media in 96-well plates until they reached 60% confluency. Hydrogels and doxycycline were added in their respective wells. Plates were incubated at 37° C., 5% CO2, for 24 h. Media were removed and 200 μl of MTT solution (0.5 mg/ml prepared in phosphate buffer saline (PBS, Himedia, Catalog #TS1119)) was added to each well. Plate was incubated in dark at 37° C., 5% CO2 for 4h. MTT solution was then removed and 100 μl demthyl sulfoxide (DMSO) was added to each well to dissolve the formazan crystal. Absorbance was calculated at 570 nm in the multiplate reader. Percent of cell viability was calculated using Equation 2.
Where, O.D. is optical density at 570 nm.

[2] = tested on: S. mutans; assay: Zone of inhibition on agar plates; conditions: Streptococcus mutans, 37° C., 24 h, 25 mg hydrogel with 2 mg drug
Protocol: (§1) S. aureus and S. mutans were cultured in nutrient broth and spread onto agar plates. Hydrogels (25 mg SF doxy hydrogel having 5 mm diameter with 2 mg drug) were kept in each plate in the center on the media and for doxycycline, drug was added in the center where the media was punched out. Plates were incubated at 37° C. for 24 h. After the incubation period, radius of the zone of inhibition was measured in each plate.

[3] = tested on: S. aureus; assay: Zone of inhibition on agar plates; conditions: Staphylococcus aureus, 37° C., 24 h, 25 mg hydrogel with 2 mg drug
Protocol: as §1

C[C@H]1c2cccc(O)c2C(=O)C2=C(O)[C@]3(O)C(=O)C(C(N)=O)=C(O)[C@@H](N(C)C)[C@@H]3[C@@H](O)[C@@H]21 [doxycycline]
viability at 24 h ([1]; human, HDFC cells): 40% | viability at 24 h ([1]; human, MG63 cells, MG63, 24 h): 40% | viability at 24 h ([1]; mouse, MC3T3 cells, MC3T3, 24 h): 40% | zone of inhibition at 2000 µg/disc [2]: 25 mm | zone of inhibition at 2000 µg/disc [3]: 10 mm
